For one data set, the system named is SLAMF 1. Nature of the data set: Palmitic acid treatment of human hepatocytes in culture, SLAMF1 protein by western blot and immunofluorescence. The settings on record: for SLAMF1 level normalized to Tubulin, relative to control: western blot, n=3; for SLAMF 1 protein levels by immunofluorescence staining: palmitic acid vs vehicle. Format: cell-based. The procedure:
Hepatocytes were treated with two different doses of palmitic acid (0.4 and 0.8 mM). […] The 0.4 mM dose has a SLAMF1 level of 2.3 times the control level. The 0.8 mM dose has a SLAMF1 level of 5.8 times the control level. […] Representative immunofluorescence staining of hepatocytes treated with vehicle (left panel) or palmitic acid (right panel). Caveolin antibody (red, to label the membrane of the cells), SLAMF 1 antibody (green) and the nuclear marker DAPI (blue). Protein levels of SLAMF 1 are elevated in response to palmitic acid (right panel). The data represents n=4 samples per group. All samples were a courtesy of Pathology Department. All pictures were acquired on a Leica TCS SP5 Spectral Confocal Microscope equipped with a ×40 (oil) objective.

The test system of another data set is HepG2 cells. Kind of data set: Palmitic acid lipotoxicity in HepG2 cells (MTT, lactate dehydrogenase, AnV cytometry, cleaved caspase 3 p17 western blot). Type of data set: cell-based, human. The following applies: PA 24 h. A general note: In western blotting, separated proteins are transferred to a membrane and probed.
A further data set relates to SLAMF1. Kind of data set: SLAMF1 expression in PA treated HepG2 cells (immunocytochemistry, Western blot, q-PCR, conditioned medium). Type of data set: cell-based, human. The following applies: for SLAMF1 mRNA (q-PCR) / SLAMF1 protein (immunocytochemistry, Western blot): HepG2 cells, PA 24 h. The source says: FIGS. 7A-7C show SLAMF1 increases in PA treated HepG2 cells.
Non-alcoholic fatty liver disease (NAFLD) is one of the most common forms of chronic liver disease. NAFLD's initial phase involves hepatic steatosis (triglyceride accumulation in hepatocytes). NAFLD can rapidly progress to non-alcoholic steatohepatitis (NASH). NASH is characterized by increased oxidative stress, lipid peroxidation, inflammation, mitochondria dysfunction, and hepatocyte death and fibrosis. If untreated, NASH leads to cirrhosis, and in some cases, hepatocellular carcinoma. […] Therefore, it is critical to understand the mechanisms responsible for NAFLD progression to NASH to develop efficient therapies and find disease progression biomarkers. Signaling lymphocytic activation molecule 1 (SLAMF1) protein is a self-ligand receptor involved in regulating the immune response to viruses and cancer. In the present disclosure, the inventors discovered that hepatocytes from NASH liver samples from humans and mice express high levels of SLAMF1. To confirm these findings, the inventors used palmitic acid-treated HepG2 hepatocytes as an “in vitro” model of NASH. […] Based on the inventors' experimental results, SLAMF1 may be used as both a therapeutic and a diagnostic target (including soluble form) for NAFLD and NASH.
Referring to FIGS. 6A-8E, the involvement of SLAMF1 in the progression of NASH was explored in human hepatocarcinoma cells HepG2.

Data on one compound can be found in US20240077498A1, “METHOD OF DIAGNOSING AND TREATING NONALCOHOLIC FATTY LIVER DISEASE AND NONALCOHOLIC STEATOHEPATITIS” (Board of Supervisors of Louisiana State University and …, priority 2020, published 2024).

“Also recorded” adds a separate entry of the source.

For the compound `CCCCCCCCCCCCCCCC(=O)O` [palmitic acid], the “SLAMF1 level normalized to Tubulin, relative to control” value in the data set on SLAMF 1 (0.4 mM palmitic acid) is recorded as 2.3 times the control level. In addition, the “SLAMF1 level normalized to Tubulin, relative to control” value in the data set with SLAMF 1 (0.8 mM palmitic acid) amounted to 5.8 times the control level. In addition, the “SLAMF 1 protein levels” value in the data set with SLAMF 1 (0.4 and 0.8 mM palmitic acid) was “dose dependent increase”. Moreover, in the data set on SLAMF 1 (n=4), the “SLAMF 1 protein levels by immunofluorescence staining” value is on record as “significant increase in SLAMF1 levels”. For the same compound, the “SLAMF 1 protein levels by immunofluorescence staining” value in the data set on SLAMF 1 (n=4, listed as Palmitic acid) was “elevated”. In the data set on HepG2 cells, the “apoptosis (AnV by cytometry, cleaved caspase 3 p17 by western blot)” value was “induced apoptosis”; the “cell viability (MTT)” value was “reduces cell viability”; the “cytotoxicity (Lactate dehydrogenase activity in conditioned medium)” value is on record as “increases cytotoxicity”. In addition, in the data set on SLAMF1, the “SLAMF1 mRNA (q-PCR)” value was “significant increases” and the “SLAMF1 protein (immunocytochemistry, Western blot)” value is “significant increases”. In the data set on SLAMF1 (listed as PA), the “SLAMF1 mRNA (q-PCR)” value is recorded as “increases” and the “SLAMF1 protein (immunocytochemistry, Western blot)” value is “increases SLAMF1 protein”. Moreover, the “SLAMF1 in culture/conditioned medium” value in the data set on SLAMF1 (palmitic acid-treated hepatocytes) is “secrete SLAMF1 in the culture medium; also recorded: increases SLAMF1 both in cells and conditioned medium”.
